According to patent US11078160B2, “Ethynyl compounds, their preparation and their therapeutic use for the treatment of malaria” (SANOFI, priority 2017, dated 2021):
Structures can show the parent of a compound that is named as a salt. Where two headings read alike, the source gives them in different places.

Assays:
Type in all cases: cell-based
[1] = tested on: strain NF54 of P. falciparum; assay: 3H-hypoxanthine incorporation growth inhibition assay, P. falciparum NF54
Procedure: The biological activity of compounds of formula (I) according to the invention has been tested on the basis of an IC50 evaluation against the strain NF54 of P. falciparum.
For Hypoxanthine assay, parasite cultures were grown in 100 mm petri-dishes in growth media having 5% haematocrit in tri-gas incubator (Cat #3131, Thermo Scientific Forma Series II Water Jacketed CO2 incubator, sold by Thermofisher) having controlled gas mixtures of 4% CO2 and 3% O2 at temperature 37° C.
Parasite growth and morphology was observed daily using thin smears at 100× (oil immersion) magnification following staining with Giemsa stain.
Parasites use hypoxanthine included in the growth media as a precursor in nucleic acid synthesis. Accordingly, by replacing hypoxanthine in the media by a radioactive hypoxanthine, such as ^3H-hypoxanthine as indicated here-under, the rate of DNA replication and growth rate of the parasites can be measured, in particular in the presence of the tested compounds of the invention.
The growth media used for the above-indicated parasites contains 1 L of RPMI-1640 (sold by Invitrogen), […] of Albumax II (sold by Invitrogen), 5 mg of Hypoxanthine (sold by Sigma), 25 mM Hepes (sold by Invitrogen) and 2.5 mg of Gentamycin (sold by Sigma).
The screening media used contains 1 L of RPMI-1640 (sold by Invitrogen), […] of Albumax II (sold by Invitrogen), 25 mM Hepes (sold by Invitrogen) and 2.5 mg of Gentamycin (sold by Sigma).
For this assay, the above described screening media was used, as well as 20 Ci/mmol of a radioactive hypoxanthine (the ligand ^3H-hypoxanthine (20 Ci/mmol, 1 mCi/mL) sold by the American Radiolabeled Chemicals (ARC) from St Louis, Mo.), some Top Seal A (sold by Perkin Elmer), 96 Well Cell Culture plates (CellStar® sold by Greiner Bio-One GmbH), MicroScint® 20 (sold by Perkin Elmer) and GFB plates (sold by Perkin Elmer).
On each 96 well plate, 3 compounds of formula (I) according to the invention as well as one standard compound (positive control) are each tested in 12 wells in duplicate.
Said standard compound is a mixture of Artesunate and Chloroquine, two well-known anti malaria compounds.
The maximum activity value of the parasites is determined as positive control by observing the parasites in the presence of erythrocytes, while the minimum activity value of the parasites is determined in a negative control by observing the erythrocytes in the absence of parasites.
The tested compounds of the invention were assayed at a final concentration of 10 μM.
In order to do so, stock solutions at a concentration of […] of compound to be tested are made available in high recovery vials at a concentration of 10 mM. From this, a 20 μM stock in Screening media is prepared ([…] of 10 mM compound+996 μl of screening media) to keep % DMSO at 0.4.
Starting from 20 μM stock solution, 100 μl is added in the assay plate already containing 100 μl of screening media and 1:2 fold serial 12 point dilutions are made in the plate (10 μM to 4.8 nM) (100 μl of compound is mixed with 100 μl of screening media already present in plates, and so on).
P. falciparum culture diluted to 0.3% p and 1.25% h—synchronous ring stage. The assay was carried out in sterile, in the 96-well plate.
100 μL of P. falciparum culture was added per well and were then incubated at 37° C. for 48 hours. Smears are then made to check for growth of culture control after 48 hours of incubation.
Once ensured that the culture has grown in % p, 50 μL of 3H-Hypoxanthine (0.5 μCi/well) is added in each well, and the assay plate is further incubated for 24 hours.
After 72 hours, the assay plates are harvested on GFB plates. In order to remove nonspecific binding, the plates are washed with 2.5 ml of cooled distilled water and GFB plates were kept for drying at 37° C. over night or 60° C. for 1 hour.
50 μL of Microscint®-20 was added to each well.
The plates are then read in Top Count (45 sec/well).
The assay data were analysed using Graph pad prism ver.5 software. […]

[2] = tested on: P. falciparum clinical field isolates; assay: Ex vivo drug susceptibility assay (schizont maturation, flow cytometry) on P. falciparum clinical field isolates; conditions: Plasmodium falciparum, isolates from Timika (Papua, Indonesia), 35-56 hours
Procedure: Plasmodium isolates were collected from patients attending malaria clinics in Timika (Papua, Indonesia), a region endemic for multidrug-resistant strains of P. vivax and P. falciparum. Patients with symptomatic malaria presenting to an outpatient facility were recruited into the study if singly infected with P. falciparum or P. vivax, with a parasitaemia of between […], and the majority (>60%) of parasites at ring stage of development. […]
(§1) Drug susceptibility of P. vivax and P. falciparum isolates was measured using a protocol modified from the WHO microtest (see for instance in Marfurt J. et al., Antimicrob Agents Chemother. 2011 September; 55(9):4461).
Two hundred μL of a 2% haematocrit Blood Media Mixture (BMM), consisting of RPMI 1640 medium plus 10% AB+ human serum (P. falciparum) or McCoy's 5A medium plus 20% AB+ human serum (P. vivax) was added to each well of pre-dosed drug plates containing 11 serial concentrations (2-fold dilutions) of the anti-malarials (maximum concentration shown in brackets) CQ (2,993 nM), PIP (1,029 nM), MFQ (338 nM), AS (49 nM), and compound 1b (237 nM). […] Incubation was stopped when >40% of ring stage parasites had reached the mature schizont stage in the drug-free control wells as determined by light microscopy. […]

[3] = tested on: P. vivax clinical field isolates; assay: Ex vivo drug susceptibility assay (schizont maturation, flow cytometry) on P. vivax clinical field isolates; conditions: for Drug susceptibility difference between species: P. falciparum versus P. vivax clinical field isolates
Excerpt: The biological activity of compound 1b according to the invention has been tested on the basis of an IC50 evaluation against the strain P. vivax.
Plasmodium isolates were collected from patients attending malaria clinics in Timika (Papua, Indonesia), a region endemic for multidrug-resistant strains of P. vivax and P. falciparum. Patients with symptomatic malaria presenting to an outpatient facility were recruited into the study if singly infected with P. falciparum or P. vivax, with a parasitaemia of between […], and the majority (>60%) of parasites at ring stage of development. Venous blood (5 mL) was collected by venepuncture and after removal of host white blood cells by using Plasmodipur filters (EuroProxima B.V., The Netherlands), packed infected red blood cells (iRBCs) were used for the ex vivo drug susceptibility assay.
Standard anti-malarial drugs chloroquine (CQ), piperaquine (PIP), mefloquine (MFQ), and artesunate (AS) (WWARN QA/QC Reference Material Program), and experimental compound 1b were prepared as 1 mg/mL stock solutions in H2O or dimethyl sulfoxide (DMSO) according to the manufacturers' instructions. Drug plates were pre-dosed by diluting the compounds in 50% Methanol followed by lyophilisation and stored at 4° C.
as §1
Two hundred μL of a 2% haematocrit Blood Media Mixture (BMM), consisting of RPMI 1640 medium plus 10% AB+ human serum (P. falciparum) or McCoy's 5A medium plus 20% AB+ human serum (P. vivax) was added to each well of pre-dosed drug plates containing 11 serial concentrations (2-fold dilutions) of the anti-malarials (maximum concentration shown in brackets) CQ (2,993 nM), PIP (1,029 nM), MFQ (338 nM), AS (49 nM), and compound 1b (237 nM). A candle jar was used to mature the parasites at 37° C. for 35-56 hours. Incubation was stopped when >40% of ring stage parasites had reached the mature schizont stage in the drug-free control wells as determined by light microscopy.
Parasite growth was quantified by nucleic acid staining and data acquisition using flow cytometry as described in detail elsewhere6. Parasite growth was quantified for each drug concentration and normalised to the control well.
The dose-response data were analysed using nonlinear regression analysis and the half-maximal inhibition of growth (IC50) value derived using an inhibitory sigmoid Emax model (In Vitro Analysis and Reporting Tool; IVART7).
Drug plate quality was assured by running schizont maturation assays with the chloroquine-resistant strain K1 and the chloroquine-sensitive strain FC27.

[4] = Plasmodium falciparum, NF54, upper bound as printed, 72 hours, 3H-hypoxanthine incorporation, read-out: NF54 IC50
[5] = measured values printed under the bound, 72 hours, 3H-hypoxanthine incorporation, read-out: NF54 IC50 (nM), measured values

| SMILES | IC50 [1, 4] [nM] | Drug susceptibility difference between species [3] | further results |
| --- | --- | --- | --- |
| N=C(N)NC(=O)c1cc(C#Cc2ccc(C(F)(F)F)c(C(=O)Nc3ccccn3)c2)cc(C(F)(F)F)c1 [Compound 1a, 5-((3-(carbamimidoylcarbamoyl)-5-(trifluoromethyl)phenyl)ethynyl)-N-(pyridin-2-yl)-2-(trifluoromethyl)benzamide] | < 10 | – | IC50 [1, 5]: 7 nM |
| Cl.N=C(N)NC(=O)c1cc(C#Cc2ccc(C(F)(F)F)c(C(=O)Nc3ccccn3)c2)cc(C(F)(F)F)c1 [Compound 1b, 5-((3-(carbamimidoylcarbamoyl)-5-(trifluoromethyl)phenyl)ethynyl)-N-(pyridin-2-yl)-2-(trifluoromethyl)benzamide hydrochloride] | – | did not differ significantly | IC50 [2]: 18.9 nM; IC50 ([1]; upper bound, 72 hours, 3H-hypoxanthine incorporation, hydrochloride, read-out: NF54 IC50): < 15 nM; IC50 ([3]; Plasmodium vivax, ex vivo, isolates from Timika (Papua, Indonesia), 35-56 hours): 12 nM |
| N=C(N)NC(=O)c1cc(C#Cc2ccc(C(F)(F)F)c(C(=O)Nc3ccccn3)c2)cc(C(F)(F)F)c1 [Compound 1c, 5-((3-(carbamimidoylcarbamoyl)-5-(trifluoromethyl)phenyl)ethynyl)-N-(pyridin-2-yl)-2-(trifluoromethyl)benzamide malonic acid] | – | – | IC50 [1, 5]: 17 nM; IC50 ([1]; upper bound, 72 hours, 3H-hypoxanthine incorporation, read-out: NF54 IC50): < 20 nM |
| Cc1cccc(NC(=O)c2cc(C#Cc3cc(C(=O)NC(=N)N)cc(C(F)(F)F)c3)ccc2C)n1 [Compound 2, 5-((3-((diaminomethylene)carbamoyl)-5-(trifluoromethyl)phenyl)ethynyl)-2-methyl-N-(6-methylpyridin-2-yl)benzamide hydrochloride] | – | – | IC50 ([1]; Plasmodium falciparum, NF54, read-out: NF54 IC50 (nM)): < 25 nM |
| Cc1cccc(NC(=O)c2cc(C#Cc3cc(F)cc(C(=O)NC(=N)N)c3)ccc2C(F)(F)F)n1 [Compound 3, 5-((3-(carbamimidoylcarbamoyl)-5-fluorophenyl)ethynyl)-N-(6-methylpyridin-2-yl)-2-(trifluoromethyl)benzamide hydrochloride] | < 25 | – | – |
| Cc1ccc(C#Cc2cc(C(=O)NC(=N)N)cc(C(F)(F)F)c2)cc1C(=O)Nc1ccccn1 [Compound 4, 5-((3-(carbamimidoylcarbamoyl)-5-trifluoromethyl)phenyl)ethynyl)-2-methyl-N-(pyridin-2-yl)benzamide hydrochloride] | < 10 | – | – |
| N=C(N)NC(=O)c1cc(C#Cc2ccc(C(F)(F)F)c(C(=O)Nc3ccc(O)cn3)c2)cc(C(F)(F)F)c1 [Compound 5, 5-((3-(carbamimidoylcarbamoyl)-5-(trifluoromethyl)phenyl)ethynyl)-N-(5-hydroxypyridin-2-yl)-2-(trifluoromethyl)benzamide hydrochloride] | < 10 | – | – |
| N=C(N)NC(=O)c1cc(C#Cc2ccc(Cl)c(C(=O)Nc3ccccn3)c2)cc(C(F)(F)F)c1 [Compound 6, 5-((3-(carbamimidoylcarbamoyl)-5-(trifluoromethyl)phenyl)ethynyl)-2-chloro-N-(pyridin-2-yl)benzamide hydrochloride] | < 10 | – | – |
| N=C(N)NC(=O)c1cc(F)cc(C#Cc2ccc(C(F)(F)F)c(C(=O)Nc3ccccn3)c2)c1 [Compound 7, 5-((3-(carbamimidoylcarbamoyl)-5-fluorophenyl)ethynyl)-N-(pyridin-2-yl)-2-(trifluoromethyl)benzamide hydrochloride] | < 20 | – | – |
| N=C(N)NC(=O)c1cc(C#Cc2ccc(C(F)(F)F)c(C(N)=O)c2)cc(C(F)(F)F)c1 [Compound 8] | < 100 | – | – |
| C[C@H]1[C@H](OC(=O)CCC(=O)O)O[C@@H]2O[C@@]3(C)CC[C@H]4[C@H](C)CC[C@@H]1[C@@]24OO3 [artesunate] | – | did not differ significantly | – |
| OC(c1cc(C(F)(F)F)nc2c(C(F)(F)F)cccc12)C1CCCCN1 (stereo not drawn) [mefloquine] | – | did not differ significantly | – |
| Clc1ccc2c(N3CCN(CCCN4CCN(c5ccnc6cc(Cl)ccc56)CC4)CC3)ccnc2c1 [piperaquine] | – | did not differ significantly | – |
